{
  "source": "patent US10155050B2",
  "about": "“Cross-linked star-shaped self-assembled polypeptides and its use as carriers in biomedical applications” (CENTRO DE INVESTIGACION PRINCIPE FELIPE, priority 2015, dated 2018)",
  "origin": "cited, not measured here",
  "conditions": "FVB mice",
  "data": [
    {"substance": "inulin", "values": [
      {"measurement": "renal clearance value", "value": "around 20 mL/h"}
    ]}
  ]
}
